From patent publication US20250361233A1, “Compounds For Activating Serotonin Receptor” (PSYLO PTY LTD, priority 2023, published 2025)

Columns and labels:
Assay type in all cases: cell-based
[1] = target: T1, 5-HT2B receptor (Homo sapiens, UniProt P41595); assay: 5-HT2B activation in a similar assay at a single 10 μM concentration
T1 construct: host or cells: CHO-K1
Protocol: Activation data are provided in a similar assay tested at a single 10 μM concentration.

[2] = target: T2, 5-HT2C receptor (Homo sapiens, UniProt P28335); assay: FLIPR Ca2+ flux functional assay, agonist activity at 5-HT2C; conditions: stably transfected HEK293 cells
T2 construct: host or cells: HEK293
T2 sequence (P28335 33-458): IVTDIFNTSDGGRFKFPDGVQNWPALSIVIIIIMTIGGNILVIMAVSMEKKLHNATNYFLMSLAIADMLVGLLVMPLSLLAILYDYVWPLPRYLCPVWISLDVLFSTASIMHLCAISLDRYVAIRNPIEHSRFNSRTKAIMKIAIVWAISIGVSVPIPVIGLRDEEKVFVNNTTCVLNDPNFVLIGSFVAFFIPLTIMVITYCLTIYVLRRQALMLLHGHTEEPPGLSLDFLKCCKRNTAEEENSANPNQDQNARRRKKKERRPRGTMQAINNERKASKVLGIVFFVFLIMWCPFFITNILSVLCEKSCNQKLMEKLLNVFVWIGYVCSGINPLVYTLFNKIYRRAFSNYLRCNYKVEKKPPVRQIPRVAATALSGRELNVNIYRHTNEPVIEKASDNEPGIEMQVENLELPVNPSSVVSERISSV
Protocol: (§1) Functional assays 5-HT2A, 5-HT2B and 5-HT2C Receptors
(§2) Activity at 5-HT2A, 5-HT2B and 5-HT2C receptors was determined using a FLIPR Ca2+ flux assay at WuXi AppTec Co. Ltd. (Hong Kong) Discovery Biology Unit according to their standard protocols. Briefly, stably transfected cells expressing the receptor of interest (HEK293 for 5-HT2A and 5-HT2C; CHO-K1 for 5-HT2B) were grown and plated in a 384 well plate and incubated at 37° C. and 5% CO2 overnight. A 250 mM stock solution of probenecid in FLIPR calcium assay buffer (10 mL) was freshly prepared and combined with a fluorescent dye (Fluo-4 Direct) to give a final assay concentration of 2.5 mM. Reference compounds were 4-fold serially diluted and the screening compounds were 3-fold serially diluted in 100% DMSO for 10 points using Agilent Bravo, and 750 nL was added to a 384 well compound plate using Echo along with 30 μL assay buffer. The fluorescent dye was then added to the assay plate along with assay buffer to a final volume of 40 μL. The cell plate was incubated for 50 min at 37° C. and 5% CO2 and placed into the FLIPR Tetra along with the compound plate. 10 μL of references and compounds were then transferred from the compound plate into the cell plate and the fluorescent signal was read.

[3] = target: T3, 5-HT2A receptor (Homo sapiens, UniProt P28223); assay: FLIPR Ca2+ flux functional assay, agonist activity at 5-HT2A; conditions: stably transfected HEK293 cells
T3 construct: host or cells: HEK293
T3 sequence (P28223 whole entry): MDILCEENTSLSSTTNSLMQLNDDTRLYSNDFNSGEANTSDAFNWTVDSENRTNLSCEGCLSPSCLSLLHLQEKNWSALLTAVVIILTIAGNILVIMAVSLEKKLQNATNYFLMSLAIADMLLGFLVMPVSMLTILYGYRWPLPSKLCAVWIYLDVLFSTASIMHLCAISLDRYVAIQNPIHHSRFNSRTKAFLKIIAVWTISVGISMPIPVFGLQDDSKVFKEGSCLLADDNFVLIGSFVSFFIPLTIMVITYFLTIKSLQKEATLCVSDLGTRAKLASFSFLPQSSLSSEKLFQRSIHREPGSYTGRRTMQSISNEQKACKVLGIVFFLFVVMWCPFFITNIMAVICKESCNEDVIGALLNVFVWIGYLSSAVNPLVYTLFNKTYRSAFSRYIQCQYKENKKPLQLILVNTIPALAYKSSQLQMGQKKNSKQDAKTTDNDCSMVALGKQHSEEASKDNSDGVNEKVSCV
Protocol: as §1, §2

T1 sequence (P41595 whole entry): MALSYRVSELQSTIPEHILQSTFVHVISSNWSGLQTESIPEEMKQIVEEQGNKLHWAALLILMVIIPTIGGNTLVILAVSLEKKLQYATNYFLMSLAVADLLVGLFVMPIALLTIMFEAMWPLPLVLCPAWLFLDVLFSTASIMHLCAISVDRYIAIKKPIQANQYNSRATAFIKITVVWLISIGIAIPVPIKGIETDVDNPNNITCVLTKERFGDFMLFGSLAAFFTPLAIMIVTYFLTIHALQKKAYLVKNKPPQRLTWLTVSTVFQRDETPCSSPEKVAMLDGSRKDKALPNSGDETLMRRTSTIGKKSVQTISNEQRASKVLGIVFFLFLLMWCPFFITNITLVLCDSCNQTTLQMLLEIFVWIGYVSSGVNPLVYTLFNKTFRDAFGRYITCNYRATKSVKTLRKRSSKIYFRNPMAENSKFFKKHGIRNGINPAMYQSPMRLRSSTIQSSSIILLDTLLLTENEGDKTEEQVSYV

Compound: Fc1cnc2[nH]cc(CCN3CCC4CC43)c2c1 (stereo not shown) [Compound S25, 3-(2-(2-azabicyclo[3.1.0]hexan-2-yl)ethyl)-5-fluoro-1H-pyrrolo[2,3-b]pyridine]
- 5-HT2B % Activation @ 10 μM [1]: 41%
- EC50 [2]: 76 nM
- Emax [2]: 84%
- EC50 [3]: 8.98 nM
- Emax [3]: 87%

Compound: CCN(C)CCc1c[nH]c2ncc(C#N)cc12 [Compound S66, 3-(2-(ethyl(methyl)amino)ethyl)-1H-pyrrolo[2,3-b]pyridine-5-carbonitrile]
- 5-HT2B % Activation @ 10 μM [1]: 0%
- EC50 [2]: > 10000 nM
- Emax [2]: 1%
- EC50 [3]: 1170 nM
- Emax [3]: 65%

Compound: Fc1cnc2[nH]cc(CCN3CCC3)c2c1 [Compound S9, 3-(2-(azetidin-1-yl)ethyl)-5-fluoro-1H-pyrrolo[2,3-b]pyridine]
- EC50 [2]: 1480 nM
- Emax [2]: 72%
- EC50 [3]: 21 nM
- Emax [3]: 83%

Compound: C[C@@H]1CCCN1CCc1c[nH]c2ncc(F)cc12 [Compound S50, (R)-5-fluoro-3-(2-(2-methylpyrrolidin-1-yl)ethyl)-1H-pyrrolo[2,3-b]pyridine]
- 5-HT2B % Activation @ 10 μM [1]: 2%
- EC50 [2]: 3980 nM
- Emax [2]: 44%
- EC50 [3]: 66.5 nM
- Emax [3]: 90%

Compound: COc1ccccc1CNCCc1c[nH]c2ncc(C#N)cc12 [Compound S74, 3-(2-((2-methoxybenzyl)amino)ethyl)-1H-pyrrolo[2,3-b]pyridine-5-carbonitrile]
- 5-HT2B % Activation @ 10 μM [1]: 15%
- EC50 [2]: 1880 nM
- Emax [2]: 88%
- EC50 [3]: 7.7 nM
- Emax [3]: 93%

Compound: Fc1cnc2[nH]cc(CCNC3CCC3)c2c1 [Compound S11, N-(2-(5-fluoro-1H-pyrrolo[2,3-b]pyridin-3-yl)ethyl)cyclobutanamine]
- EC50 [2]: > 10000 nM
- Emax [2]: 25%
- EC50 [3]: 136 nM
- Emax [3]: 80%

Compound: CC1CCN1CCc1c[nH]c2ncc(Br)cc12 (stereo not shown) [Compound S59, 5-bromo-3-(2-(2-methylazetidin-1-yl)ethyl)-1H-pyrrolo[2,3-b]pyridine]
- 5-HT2B % Activation @ 10 μM [1]: 0%
- EC50 [2]: > 10000 nM
- Emax [2]: 19%
- EC50 [3]: 410 nM
- Emax [3]: 69%

Compound: CN(CCc1c[nH]c2ncc(C#N)cc12)C1CC1 [Compound S68, 3-(2-(cyclopropyl(methyl)amino)ethyl)-1H-pyrrolo[2,3-b]pyridine-5-carbonitrile]
- 5-HT2B % Activation @ 10 μM [1]: 11%
- EC50 [2]: 4570 nM
- Emax [2]: 44%
- EC50 [3]: 566 nM
- Emax [3]: 70%

Compound: N#Cc1cnc2[nH]cc(CCN3CCC3)c2c1 [Compound S70, 3-(2-(azetidin-1-yl)ethyl)-1H-pyrrolo[2,3-b]pyridine-5-carbonitrile]
- 5-HT2B % Activation @ 10 μM [1]: 0%
- EC50 [2]: > 10000 nM
- Emax [2]: 16%
- EC50 [3]: 681 nM
- Emax [3]: 78%

Compound: CC(C)N(C)CCc1c[nH]c2ncc(OC(F)(F)F)cc12 [Compound S65, N-methyl-N-(2-(5-(trifluoromethoxy)-1H-pyrrolo[2,3-b]pyridin-3-yl)ethyl)propan-2-amine]
- 5-HT2B % Activation @ 10 μM [1]: 1%
- EC50 [2]: > 10000 nM
- Emax [2]: 0%
- EC50 [3]: 665 nM
- Emax [3]: 73%

Compound: Fc1cnc2[nH]cc(CCN(C3CC3)C3CC3)c2c1 [Compound S5, N-cyclopropyl-N-(2-(5-fluoro-1H-pyrrolo[2,3-b]pyridin-3-yl)ethyl)cyclopropanamine]
- EC50 [2]: > 10000 nM
- Emax [2]: 28%
- EC50 [3]: 1070 nM
- Emax [3]: 82%

Compound: C[C@@H]1CCN1CCc1c[nH]c2ncc(F)cc12 [Compound S49, (R)-5-fluoro-3-(2-(2-methylazetidin-1-yl)ethyl)-1H-pyrrolo[2,3-b]pyridine]
- 5-HT2B % Activation @ 10 μM [1]: 0%
- EC50 [2]: > 10000 nM
- Emax [2]: 28%
- EC50 [3]: 65.7 nM
- Emax [3]: 78%

Compound: Fc1cnc2[nH]cc(CCNC3CC3)c2c1 [Compound S2, N-(2-(5-fluoro-1H-pyrrolo[2,3-b]pyridin-3-yl)ethyl)cyclopropanamine]
- 5-HT2B % Activation @ 10 μM [1]: 74%
- EC50 [2]: 187 nM
- Emax [2]: 92%
- EC50 [3]: 10.8 nM
- Emax [3]: 92%

Compound: Fc1cnc2[nH]cc(CCN3CCOCC3)c2c1 [Compound S15, 4-(2-(5-fluoro-1H-pyrrolo[2,3-b]pyridin-3-yl)ethyl)morpholine]
- EC50 [2]: > 10000 nM
- Emax [2]: 0%
- EC50 [3]: 1940 nM
- Emax [3]: 72%

Compound: N#Cc1cnc2[nH]cc(CCNCc3ccccc3F)c2c1 [Compound S72, 3-(2-((2-fluorobenzyl)amino)ethyl)-1H-pyrrolo[2,3-b]pyridine-5-carbonitrile]
- 5-HT2B % Activation @ 10 μM [1]: 0%
- EC50 [2]: 5070 nM
- Emax [2]: 47%
- EC50 [3]: 179 nM
- Emax [3]: 70%

Compound: Fc1cccc(CNCCc2c[nH]c3ncc(F)cc23)c1 [Compound S31, 2-(5-fluoro-1H-pyrrolo[2,3-b]pyridin-3-yl)-N-(3-fluorobenzyl)ethan-1-amine]
- EC50 [2]: 515 nM
- Emax [2]: 76%
- EC50 [3]: 15.5 nM
- Emax [3]: 87%

Compound: Fc1cnc2[nH]cc(CCN3CCCCC3)c2c1 [Compound S7, 5-fluoro-3-(2-(piperidin-1-yl)ethyl)-1H-pyrrolo[2,3-b]pyridine]
- 5-HT2B % Activation @ 10 μM [1]: 0%
- EC50 [2]: > 10000 nM
- Emax [2]: 2%
- EC50 [3]: 529 nM
- Emax [3]: 70%

Compound: Fc1cnc2[nH]cc(CCNCC3CC3)c2c1 [Compound S17, N-(cyclopropylmethyl)-2-(5-fluoro-1H-pyrrolo[2,3-b]pyridin-3-yl)ethan-1-amine]
- 5-HT2B % Activation @ 10 μM [1]: 7%
- EC50 [2]: 4120 nM
- Emax [2]: 35%
- EC50 [3]: 134 nM
- Emax [3]: 84%

Compound: CN(CCc1c[nH]c2ncc(Br)cc12)C1CC1 [Compound S56, N-(2-(5-bromo-1H-pyrrolo[2,3-b]pyridin-3-yl)ethyl)-N-methylcyclopropanamine]
- 5-HT2B % Activation @ 10 μM [1]: 2%
- EC50 [2]: 1850 nM
- Emax [2]: 45%
- EC50 [3]: 226 nM
- Emax [3]: 54%

Compound: COc1ccccc1CNCCc1c[nH]c2ncc(Br)cc12 [Compound S62, 2-(5-bromo-1H-pyrrolo[2,3-b]pyridin-3-yl)-N-(2-methoxybenzyl)ethan-1-amine]
- 5-HT2B % Activation @ 10 μM [1]: 1%
- EC50 [2]: 480 nM
- Emax [2]: 85%
- EC50 [3]: 7.86 nM
- Emax [3]: 78%

Compound: CC1CCN1CCc1c[nH]c2ncc(F)cc12 (stereo not shown) [Compound S16, 3-(2-(2-methylazetidin-1-yl)ethyl)-5-fluoro-1H-pyrrolo[2,3-b]pyridine]
- EC50 [2]: 1100 nM
- Emax [2]: 60%
- EC50 [3]: 32.5 nM
- Emax [3]: 81%

Compound: CN(CCc1c[nH]c2ncc(F)cc12)CC1CC1 [Compound S43, N-(cyclopropylmethyl)-2-(5-fluoro-1H-pyrrolo[2,3-b]pyridin-3-yl)-N-methylethan-1-amine]
- EC50 [2]: 2740 nM
- Emax [2]: 55%
- EC50 [3]: 155 nM
- Emax [3]: 71%

Compound: CN(CCc1c[nH]c2ncc(F)cc12)C1CCC1 [Compound S12, N-(2-(5-fluoro-1H-pyrrolo[2,3-b]pyridin-3-yl)ethyl)-N-methylcyclobutanamine]
- EC50 [2]: 3370 nM
- Emax [2]: 50%
- EC50 [3]: 79 nM
- Emax [3]: 84%

Compound: Fc1cnc2[nH]cc(CCNCc3ccccc3F)c2c1 [Compound S30, 2-(5-fluoro-1H-pyrrolo[2,3-b]pyridin-3-yl)-N-(2-fluorobenzyl)ethan-1-amine]
- EC50 [2]: 512 nM
- Emax [2]: 83%
- EC50 [3]: 26.9 nM
- Emax [3]: 82%

Compound: Fc1cnc2[nH]cc(CCNCc3ccccc3)c2c1 [Compound S34, N-benzyl-2-(5-fluoro-1H-pyrrolo[2,3-b]pyridin-3-yl)ethan-1-amine]
- EC50 [2]: 319 nM
- Emax [2]: 84%
- EC50 [3]: 18 nM
- Emax [3]: 90%

Compound: Fc1cnc2[nH]cc(CCN3CCC34CCC4)c2c1 [Compound S8, 3-(2-(1-azaspiro[3.3]heptan-1-yl)ethyl)-5-fluoro-1H-pyrrolo[2,3-b]pyridine]
- EC50 [2]: > 10000 nM
- Emax [2]: 0%
- EC50 [3]: 354 nM
- Emax [3]: 56%

Compound: COc1cccc(CNCCc2c[nH]c3ncc(F)cc23)c1 [Compound S33, 2-(5-fluoro-1H-pyrrolo[2,3-b]pyridin-3-yl)-N-(3-methoxybenzyl)ethan-1-amine]
- EC50 [2]: 244 nM
- Emax [2]: 87%
- EC50 [3]: 8.27 nM
- Emax [3]: 82%

Compound: COc1ccccc1CNCCc1c[nH]c2ncc(F)cc12 [Compound S32, 2-(5-fluoro-1H-pyrrolo[2,3-b]pyridin-3-yl)-N-(2-methoxybenzyl)ethan-1-amine]
- EC50 [2]: 206 nM
- Emax [2]: 89%
- EC50 [3]: 3.31 nM
- Emax [3]: 94%
